ChEMBL document CHEMBL1135200, “Inhibition of the U1A-RNA complex by an aminoacridine derivative” (Bioorg Med Chem Lett, 2002)

Experiments:
[1] = Ability to inhibit formation of the TatTAR complex by binding to the closing GC or CG base pair and adjacent nucleotides of loops in the TAR RNA.
Nucleic Acid [2] = assay: Ability to inhibit the formation of the U1A-stem loop 2 RNA complex using gel mobility shift assay; type: nucleic-acid assay
Nucleic Acid [3] = assay: Ability to inhibit the […]-RNA complex formation; type: nucleic-acid assay

Nc1nc(N)c2c(N)c(N)ccc2n1
IC50 [1]: 10 µM
IC50 (Nucleic Acid [2]): 10000 µM

COc1ccc2nc3cc(Cl)ccc3c(NCCCN(CCCN)CCCCN)c2c1
IC50 [1]: 22 µM
IC50 (Nucleic Acid [3]): 1 µM
IC50 (Nucleic Acid [2]): 1 µM
